Laboratory results: patent US20240382475A1, “Quinazoline Derivative, Or Preparation Method Therefor And Use Thereof” (Zhejiang Hisun Pharmaceutical Co., Ltd., priority 2021, published 2024)

What was measured:
Assay type in all cases: in vivo
[1] = Pharmacokinetic evaluation in ICR mice; conditions: male, mouse, plasma, PO 10 mg/kg
Text: ICR normal mice were used as test animals, and LC/MS/MS was used to determine the drug concentrations at different moments in plasma of ICR mice by intragastric administration. The pharmacokinetic behavior of the compounds of the present invention in ICR mice was studied to evaluate the pharmacokinetic characteristics of the above compounds.
Compound 4, Compound 26 and Compound 32.
ICR mice, male, 27.8-38 g, were purchased from Zhejiang Vital River Laboratory Animal Technology Co., Ltd.
An appropriate amount of the compound was weighed, and DMA:30% Solutol HS-15:Saline=5:5:90 (v/v/v) was used as the solvent to prepare a fully dissolved solution, and then administered to obtain a 1 mg/mL colorless solution.
The ICR mice in the intragastric group of each compound to be tested (nine mice in each group) were fasted overnight followed by intragastric administration (administration dosage was 10 mg/kg and the administration volume was 10 mL/kg), and ate 4 hours after administration.
0.1 mL of blood was collected via orbit before administration and 0.25 hour, 0.5 hour, 1 hour, 2 hours, 4 hours, 8 hours, 12 hours, and 24 hours after administration, and placed in EDTA-K2 anticoagulant tubes. The collected blood samples were placed on ice, and plasma was separated by centrifugation (centrifugation condition: 1500 g, 10 minutes). The collected plasma samples were stored at −40˜−20° C. before analysis.
LC-MS/MS was used to determine the content of the compound to be tested in mouse plasma after intragastric administration.

[2] = Pharmacokinetic evaluation in SD rats; conditions: male, rat, plasma; for AUC(0-t): read-out: Area under curve AUC0-t; for half-life: read-out: Half-life T1/2 (converted)
Protocol: SD rats were used as the test animals, and LC/MS/MS was used to determine the drug concentrations at different moments in plasma after compound 11 of the present invention was administered to the rats through intravenous injection or intragastric administration. The pharmacokinetic characteristics of compound 11 of the present invention in SD rats were studied.
SD rats, male, 195-235 g, 6-8 weeks old, were purchased from Vital River Laboratory Animal Technology Co., Ltd.
Intravenous injection group: an appropriate amount of the compound to be tested was weighed, and an appropriate amount of DMA:30% Solutol HS-15:Saline=5:5:90 (v/v/v) was added respectively, vortexed, and a solution with a final concentration of 0.2 mg/mL was prepared.
(§1) Intragastric administration group: an appropriate amount of the compound to be tested was weighed, and an appropriate amount of DMA:30% Solutol HS-15:Saline=5:5:90 (v/v/v) was added, vortexed, and a solution with a final concentration of 1 mg/mL was prepared.
The SD rats were divided into intravenous injection group (3 rats/group) and intragastric administration group (3 rats/group) according to the compound to be tested.
Intravenous injection group: rats were fasted overnight and then administered by intravenous injection (administration dosage was 1 mg/kg, and administration volume was 5 mL/kg), and ate 4 hours after administration.
Intragastric administration group: rats were fasted overnight followed by intragastric administration (administration dosage was 10 mg/kg, and administration volume was 10 mL/kg), and ate 4 hours after administration.
(§2) Intravenous injection group: about 150 μL of blood was collected through jugular vein into EDTA-K2 anticoagulant tubes 0.083 hour, 0.25 hour, 0.5 hour, 1 hour, 2 hours, 4 hours, 8 hours and 24 hours after administration. The collected blood sample was placed on ice, and plasma was separated by centrifugation (centrifugation condition: 1500 g, 10 minutes). The collected plasma sample was stored at −40˜−20° C. before analysis.
as §2, with “Intragastric administration group:” for “Intravenous injection group:”, “about 100” for “about 150”, “tubes” for “tubes 0.083 hour,”
LC-MS/MS was used to determine the content of the compound to be tested in rat plasma after intravenous injection and intragastric administration of the compound.

[3] = Pharmacokinetic evaluation in beagle dogs; conditions: male, dog, plasma; for AUC(0-t): read-out: Area under curve AUC0-t; for half-life: read-out: Half-life T1/2 (converted)
Protocol: Beagle, male, 13 to 14 months old, purchased from Beijing Mas Biotechnology Co., Ltd.
Intravenous injection group: an appropriate amount of the compound to be tested was weighed, and an appropriate amount of DMA:30% Solutol HS-15:Saline=5:5:90 (v/v/v) was added, vortexed, and a solution with a final concentration of 0.5 mg/mL was prepared.
as §1
The beagle dogs were divided into intravenous injection group (3 dogs/group) and intragastric administration group (3 dogs/group) according to the compound to be tested.
Intravenous injection group: dogs were fasted overnight and then administered by intravenous injection (administration dosage was 0.5 mg/kg, and administration volume was 1 mL/kg), and ate 4 hours after administration. […]
Intravenous injection group: about 0.5 mL of blood was collected through jugular vein into EDTA-K2 anticoagulant tubes at 0.083 hour, 0.25 hour, 0.5 hour, 1 hour, 2 hours, 4 hours, 8 hours and 24 hours after administration. […] The collected plasma sample was stored at −40˜−20° C. before analysis.
Intragastric administration group: about 0.5 mL of blood was collected through jugular vein into EDTA-K2 anticoagulant tubes at 0.25 hour, 0.5 hour, 1 hour, 2 hours, 4 hours, 8 hours and 24 hours after administration. […] The collected plasma sample was stored at −40˜−20° C. before analysis.
LC-MS/MS was used to determine the content of the compound to be tested in dog plasma after intravenous injection and intragastric administration of the compound.

SMILES | AUC(0-t) ([1]; read-out: Area under curve AUC0-t) | half-life ([1]; read-out: Half-life T1/2 (converted)) | Cmax ([1]; read-out: Plasma concentration Cmax) | bioavailability ([2]; Oral 10 mg/kg vs injection 1 mg/kg, read-out: Bioavailability F) | AUC(0-t) ([2]; Oral 10 mg/kg) | half-life ([2]; Oral 10 mg/kg) | Cmax ([2]; Oral 10 mg/kg, read-out: Plasma concentration Cmax) | AUC(0-t) ([2]; iv, injection 1 mg/kg) | half-life ([2]; iv, injection 1 mg/kg) | bioavailability ([3]; Oral 2 mg/kg vs injection 0.5 mg/kg, read-out: Bioavailability F) | AUC(0-t) ([3]; Oral 2 mg/kg) | half-life ([3]; Oral 2 mg/kg) | Cmax ([3]; Oral 2 mg/kg, read-out: Plasma concentration Cmax) | AUC(0-t) ([3]; iv, injection 0.5 mg/kg) | half-life ([3]; iv, injection 0.5 mg/kg)
COc1cc2nc(C)nc(N[C@H](C)c3cccc(C#N)c3C)c2cc1N1CCC2(CCOCC2)CC1 [Compound 4, (R)-3-(1-((7-methoxy-2-methyl-6-(3-oxa-9-azaspiro[5.5]undecan-9-yl)quinazolin-4-yl)amino)ethyl)-2-methylbenzonitrile] | 5820 ng·h/mL | 0.85 h | 2310 ng/mL | – | – | – | – | – | – | – | – | – | – | – | –
COc1cc2nc(C)nc(N[C@H](C)c3cccc(C#N)c3C)c2cc1N1CCC(C)(O)CC1 [Compound 11, (R)-3-(1-((6-(4-hydroxy-4-methylpiperidin-1-yl)-7-methoxy-2-methylquinazolin-4-yl)amino)ethyl)-2-methylbenzonitrile] | – | – | – | 79.4% | 4860 ± 1670 ng·h/mL | 2.41 ± 2.11 h | 1150 ± 349 ng/mL | 612 ± 126 ng·h/mL | 0.73 ± 0.32 h | 127% | 3510 ± 1750 ng·h/mL | 4.21 ± 0.943 h | 456 ± 149 ng/mL | 693 ± 183 ng·h/mL | 2.81 ± 0.45 h
